Source: patent publication US7399319B2, “Dyeing composition comprising a dye chosen from styryl and imine dyes and methods for dyeing keratin fibers” (L'Oreal S.A., priority 2005, dated 2008)

Assay: Shampoo-fastness test on dyed locks
Experimental: A shampoo-fastness test was performed on the locks of hair dyed with dyes 1 and 2 obtained under the conditions described above. The dyed locks were subjected to 20 shampoo washes according to a cycle comprising wetting the locks with water, washing with shampoo, rinsing with water, and then drying.
The degradation of the color after x shampoo washes was estimated according to the following formula:
[formula] [formula] [formula] [formula] [formula] wherein a*ctrl, b*ctrl, and L*ctrl are the values of a*, b*, and L* of the non-dyed lock; a*dyed, b*dyed, and L*dyed are the values of a*, b*, and L* of the dyed lock before shampooing, whereas a*xSh, b*xSh, and L*xSh are the values of a*, b*, and L* of the dyed lock after x shampoo washes.

[1] = permanent-waved lock, after 5 shampoo washes
[2] = permanent-waved lock, after 12 shampoo washes
[3] = permanent-waved lock, after 18 shampoo washes
[4] = permanent-waved lock, after 20 shampoo washes

Row | Compound | % degradation [1] [%] | % degradation [2] [%] | % degradation [3] [%] | % degradation [4] [%] | % degradation (natural lock, after 5 shampoo washes) [%] | % degradation (natural lock, after 12 shampoo washes) [%] | % degradation (natural lock, after 18 shampoo washes) [%] | % degradation (natural lock, after 20 shampoo washes) [%]
1 | CN(C)c1ccc(C=CC23OCCN2c2ccccc2C3(C)C)cc1 (stereo not drawn) [Dye 1] | 10 | 17 | 18 | 24 | – | – | – | –
2 | CN(C)c1ccc(C=CC=CC23OCCN2c2ccccc2C3(C)C)cc1 (stereo not drawn) [Dye 2] | 6 | 6 | 7 | 11 | 4 | 14 | 18 | 20
